According to patent US7910694B2, “Homing peptides to receptors of heart vasculature” (Cornell Research Foundation, Inc., priority 2002, dated 2011):
“Also recorded” adds a separate entry of the source.

Experiments:
[1] = tested on: myocardial infarction; test: Intramyocardial TNFα followed by coronary occlusion: myocardial necrosis, apoptosis, mortality; type: in vivo, F344 rats
Protocol: (§1) FIG. 5. Aging-associated alterations in TNFα cardioprotection. (A) Representative immunostaining for PDGF-B in rat hearts injected with TNFα or PBS vehicle 24 h prior to sacrifice. (B) Quantification of PDGF-B density in the injected hearts (n=3, each group). (C) Representative cardiac histology after coronary occlusion: Mason's trichrome staining for myocardial necrosis (14 day post-coronary occlusion) in 4- and 24-month old rat hears treated with PBS (4- and 24-month old, n=4 and 10, respectively) and TNFα (4-month old, n=4); and (D) tunnel staining for apoptosis (DAB) with hematoxylin counter stain (2 day post-coronary occlusion) in 24-month old hearts treated with TNFα (n=10; 80% mortality vs. PBS 0%; p<0.05). (E) Quantification of myocardial necrosis in rat hearts 14 day post-coronary occlusion.
(§2) To examine the age-dependent effects of TNFα PDGF-B expression and protection from myocardial necrosis, sets of 4- and 24-month old F344 rats received intramyocardial injections of growth factor.

[2] = tested on: PDGF-B; test: Intramyocardial injection of TNFα: PDGF-B immunostaining in hearts; type: in vivo, F344 rats; conditions: 100 ng intramyocardial, 24 h
Protocol: as §1, §2

[3] = tested on: cardiac microvascular endothelial cells (CMECs); test: PDGF-B induction (RT-PCR) after TNFα treatment of cultured CMECs; type: cell-based, F344 rats; conditions: 4-month old rat CMECs, TNFα 30 ng/ml, 3 hr
Source text: FIG. 4. Aging-associated alterations in cardiac microvascular TNFα receptor pathways. (A) Representative immunostaining for TNF receptor 1 and 2 in the subepicardium and subendocardium of 3- and 18-month old murine hearts. (B) TNF receptor 1 and 2 densities in the subendocardium of 3- and 18-month old murine hearts (n=3, each). (C) RT-PCR for PDGF-B induction after TNFα treatment of 4- and 24-month old rat CMECs.
The functional significance of the changes in TNF receptor in the aging cardiac microvasculature was examined in vitro. Cardiac microvascular endothelial cells (CMECS) of 4 and 24-month old F344 rats were isolated and cultured. Briefly, the hearts were removed and minced in endothelial cell medium (DMEM containing 20% FBS, 1% endothelial cell growth factor, 1% endothelial cell growth supplement, 1% BME, 10^−4% heparin and 1% penicillin [10,000 I.U./ml]/streptomycin [10,000 μg/ml]), and digested with medium containing 0.2% collagenase and 0.005% Dnase, and 5% FBS for 45 minutes with subsequent endothelial cells isolation by PECAM-mediated magnetic particle collection (Dynabeads). The resultant CMECs (Dil-LDL uptake>95%) were cultured for 2 passages and seeded into 12-well culture dish (10^5 cells/well) and grown to confluence. Medium was changed to serum free-DMEM for 1 hr and then to medium containing 2% FBS+TNFα (30 ng/ml) for 3 hr.

[4] = tested on: receptors in the heart vasculature; test: Binding of homing peptides to receptors in heart vasculature versus other organs; set-up: species or system mammal; conditions: for binding to BDNF receptor(s) in the vasculature of older hearts: usually trkB, more commonly truncated trkB; for binding to receptors on other organs (than heart, or heart and brain): organ selectivity

TNFα: tumor necrosis factor α, growth factor injected intramyocardially or added to CMECs (NPQAEGQLQV)
extent of myocardial infarction in young hearts ([1]; 4-month old rats, 14 day post-coronary occlusion): markedly reduced | apoptosis in older hearts ([1]; 24-month old rats, anterior left ventricular wall, 2 day post-coronary occlusion): extensive apoptosis; also recorded: induced apoptosis | mortality in older rats ([1]; 24-month old rats, within 72 h of coronary occlusion): 80% | PDGF-B in young hearts in vivo ([2]; 4-month old rats): specifically induced increase | PDGF-B in aging hearts in vivo ([2]; 24-month old rats): minimal effect | PDGF-B expression in CMECs from young hearts [3]: induced

ARRGQAV
binding to BDNF receptor(s) in the vasculature of older hearts [4]: bind | binding to receptors on other organs (than heart, or heart and brain) [4]: do not bind significantly

QAQGQLV
binding to receptors on other organs (than heart, or heart and brain) [4]: does not bind significantly | binding capacity to TNF receptor(s) in vasculature of young versus older hearts ([4]; young vs older hearts): more binding capacity

GRRFIRV
binding to BDNF receptor(s) in the vasculature of older hearts [4]: bind | binding to receptors on other organs (than heart, or heart and brain) [4]: do not bind significantly
